Columns and labels:
BAX = test: Western blot of BAX in ∆K280 TauRD‐DsRed SH‐SY5Y cells; format: cell-based, human; settings: induced untreated 120%, uninduced 100%
Description: (§1) Total proteins from ∆K280 TauRD-DsRed SH-SY5Y cells were obtained using a RIPA buffer containing 50 mM Tris-HCl (pH8.0), 150 mM NaCl, 2 mM EDTA (pH8.0), 50 mM NaF, 0.1% SDS, 0.5% sodium deoxycholate, 1% NP40, and a protease inhibitor cocktail (Sigma-Aldrich). After sonication and sitting on ice for 20 min, the lysates were centrifuged at 14,000 × g for 30 min at 4°C. Protein concentrations were determined using a protein assay kit (Bio-Rad, Hercules, CA, USA), with albumin as a standard. Total proteins (20 µg) were electrophoresed on 10% or 12% SDS-polyacrylamide gel and transferred onto polyvinylidene difluoride (PVDF) membranes (Sigma-Aldrich) through reverse electrophoresis. […] Subsequently, immune complexes were detected using a horseradish peroxidase-conjugated goat anti-mouse or goat anti-rabbit IgG antibody (1:5000; GeneTex, Irvive, CA, USA) and a chemiluminescent substrate (Millipore).

ERK1/2 = test: Western blot of ERK1/2 in ∆K280 TauRD‐DsRed SH‐SY5Y cells; format: cell-based, human
Description: as §1
Figure S4. ΔK280 TauRD-DsRed SH-SY5Y cells. […] On day 9, neurite outgrowth and caspase 3 activity were measured. In addition, expression of HSPB1, NRF2, and CREB pathways were assessed. (b) Relative AKT, pAKT, ERK, and pERK protein levels analyzed through immunoblotting. […]

[1] = system: STZ‐induced hyperglycemic 3 × Tg‐AD mice; test: Y‐maze task in STZ‐treated 3 × Tg‐AD mice; format: in vivo, mouse; settings: day 26; 40 mg/kg i.p.; STZ 53%, – STZ 63%
Description: Mice harboring APPSwe, PS1M146V, and […] transgenes (3×Tg-AD) (Oddo et al., 2003) were purchased from the Jackson Laboratory (004807; Bar Harbor, ME, USA). Six-month-old male homozygous 3×Tg-AD mice were group housed at 20–25°C and 60% relative humidity under a daily 12-h light/12-h dark cycle, with assess to food and water ad libitum. Mice were randomly divided into 3 groups: – streptozocin (STZ), STZ, and STZ/LM-031 (n = 10 per group). STZ-induced hyperglycemia was used to accelerate the development of AD phenotype (Chen et al., 2014). […] Mouse body weight was measured and blood glucose level was measured on days 1, 8, 15, 22, and 29 using a blood glucose meter (Bioland Technology, Taipei, Taiwan). […]
A Y-maze composed of three equally spaced arms (40 cm long, 30 cm high, and 15 cm wide) was used to assess spontaneous alternation behavior. On day 26, each mouse was placed in one of the arm compartments and was allowed to move freely for 8 min; the number of entries and the sequence of arms entered were recorded. Spatial working memory was assessed through the spontaneous alternation performances of a Y-maze exploration as described (Maurice et al., 1994). […] The percent of spontaneous alternation behavior was calculated as the ratio of actual alternation to possible alternations (total arm entries – 2) × 100.

pCREB = test: Western blot of pCREB in hippocampus of STZ‐treated 3 × Tg‐AD mice; format: in vivo, mouse; settings: STZ 68%, – STZ 100%
Description: In addition, isolated hippocampal and cortex tissues from transgenic mice (as described in Animal studies) were homogenized and extracted proteins (10 µg) were separated and blotted. After being blocked, the membranes were probed with antibody against mouse NRF2 (1:500; Sigma-Aldrich), CREB (1:500; Millipore), pCREB (S133) (1:1000; Millipore), or GAPDH (1:1000; MDBio), and the immune complexes detected as described above.
Mice harboring APPSwe, PS1M146V, and […] transgenes (3×Tg-AD) (Oddo et al., 2003) were purchased from the Jackson Laboratory (004807; Bar Harbor, ME, USA). Six-month-old male homozygous 3×Tg-AD mice were group housed at 20–25°C and 60% relative humidity under a daily 12-h light/12-h dark cycle, with assess to food and water ad libitum. Mice were randomly divided into 3 groups: – streptozocin (STZ), STZ, and STZ/LM-031 (n = 10 per group). STZ-induced hyperglycemia was used to accelerate the development of AD phenotype (Chen et al., 2014). Briefly, the mice were fasted for 12 h each day prior to intraperitoneal (i.p.) injection of STZ ([…]; Sigma-Aldrich) or vehicle (0.1 M sodium citrate pH4.5) for 4 times (days 2, 3, 9, and 10) (Chen et al., 2019). Mouse body weight was measured and blood glucose level was measured on days 1, 8, 15, 22, and 29 using a blood glucose meter (Bioland Technology, Taipei, Taiwan). […]

**Q.** What does the source list for `O=C(c1ccccc1)c1cc2c(O)cccc2oc1=O` [LM‐031, 3‐benzoyl‐5‐hydroxychromen‐2‐one]?
**A.** BAX expression (BAX): 76%; ERK1/2 level (ERK1/2): not notably affected; Y‐maze alternation rate [1]: 72%; pCREB level in hippocampus (pCREB): 110%

From paper PMC7433010, “Exploration of multi‐target effects of 3‐benzoyl‐5‐hydroxychromen‐2‐one in Alzheimer’s disease cell and mouse models” (Aging Cell, 2020)
